In patent US20080051379A1, “Compositions and Methods for the Treatment of Peripheral B-Cell Neoplasms” (Trustees of Boston University, priority 2004, published 2008):

What was measured:
Type in all cases: cell-based, human
B-CLL cells = experiment: Hoechst 33342 apoptosis assay, B-CLL cells; details: for apoptosis by Hoechst 33342 analysis: 48 hrs culture, Roli 10 μM, HC 1 μM
Description: FIGS. 1A-D show the effects of the cyclic nucleotide phosphodiesterase inhibitors rolipram, RO20-1724 and cilostamide on hydrocortisone and dexamethasone-induced apoptosis in B-CLL. In FIG. 1A, leukemic cells from 11 B-CLL patients were assessed for apoptosis by […] analysis after 48 hrs culture in media alone (No treatment), 10 μM rolipram (Roli), 1 μM hydrocortisone (HC) or a combination of the two drugs (Roli+HC). In FIGS. 1B and 1C, leukemic cells from five patients with B-CLL were cultured in media alone or with a dose titration of hydrocortisone (1B: solid line) or dexamethasone (1C: solid line), followed by assessment for apoptosis by Hoechst 33342 FACS analysis at 48 hours. Using the same experimental conditions, the effect of addition of 10 μM rolipram (thick dashed line) to the glucocorticoids was also assessed. In FIG. 1D, the apoptotic effects of the PDE4 inhibitor RO20-1724 (RO20) (10 μM) or the PDE3 inhibitor cilostamide (Cilost) (10 μM) were assessed on B-CLL cells when combined with 1 μM hydrocortisone. Data represent the mean±SEM of triplicate samples.
Blood samples were obtained by IRB-approved consent from flow cytometry-confirmed B-CLL patients that were either untreated or for whom at least one month had elapsed since chemotherapy. Patients with active infections or other serious medical conditions were not included in this study.
CCRF-CEM cells were obtained from ATCC^27. Leukemic or normal mononuclear cells were obtained by centrifugation over Histopaque 1077 (Sigma Chemical Company, St. Louis, Mo.). For purification of T cells, whole mononuclear cells from normal subjects were incubated with magnetic beads coated with appropriate antibodies, then positively purified using a magnet (Miltenyi). Cells were cultured in RPMI 1640 media (Biowhittaker, Walkersville, Md.) supplemented with 10% fetal calf serum, 50 μMol/L 2-mercaptoethanol, 2 mMol/L L-glutamine, 10 mM Hepes pH 7.4, […] (Sigma Chemical Company, St. Louis, Mo.). For isolation of glucocorticoid resistant clones, parental CCRF-CEM cells were treated with 1 μM dexamethasone for 10 days, and surviving cells diluted to ≦one cell/well in a 96-well flat-bottom tissue culture plate, grown for three weeks in media supplemented with 20% fetal calf serum and 1% insulin-transferrin-selenium (GIBCO), and then transferred to regular growth medium. […] For isolation of glucocorticoid-sensitive clones, the same procedure was used, except that treatment with dexamethasone was omitted. A glucocorticoid-sensitive subclone (CEM-S2) was inhibited in its survival by dexamethasone with an IC50=0.007 μM.
Hoechst 33342 and DiOC6(3) apoptosis assays were performed as previously described^22,28. For CCRF-CEM cell survival assays, cells were plated at a density of 3×10^4/well in 96-well flat-bottom plates in the presence of test reagents or vehicle in 0.1 mL media. Following incubation for 72 hrs, 20 μl of a 20:1 MTS (2 mg/mL)/PMS (0.92 mg/ml) solution was added to each well, and the plates incubated for 2 hrs at 37°. The absorbance (O.D.) of the formazan product was determined at 492 nm using a plate reader (Titertek Multiscan Plus, Labsystems). Percent cell viability was calculated as follows: (O.D. control sample−O.D. blank)/(O.D. test sample−O.D. blank)×100. All assays were performed in triplicate.

[1] = system: cAMP levels in CCRF-CEM cells; experiment: cAMP RIA, CCRF-CEM cells; details: 30 minutes, 10 μM rolipram, 10 μM forskolin, 1 μM hydrocortisone, three experiments
Description: (§1) Leukemic cells from six B-CLL patients or CCRF-CEM cells were incubated for 30 minutes with media alone (CT), 10 μM rolipram (Roli), 10 μM forskolin (Fsk), 1 μM hydrocortisone (HC), or the same concentration of hydrocortisone combined with rolipram (Roli/HC) or forskolin (Fsk/HC). Lysates of the cells were then assayed for cAMP using a RIA. The cAMP level obtained from each treated B-CLL sample was normalized to that observed in the untreated leukemic cells. The CCRF-CEM data shown are representative of three experiments performed.
(§2) 500,000 B-CLL or CCRF-CEM cells were incubated for 30 minutes in one mL media alone or with the addition of drugs. Cells were centrifuged and lysed in 80% ethanol. After vortexing and incubation on ice for 10 minutes, cellular debris was removed by re-centrifugation. The supernatant was dried in a Speedivac and the sample brought up in 250 μL of sample buffer as provided by the makers of a cAMP RIA kit (Amersham). 100 μL of this sample was used for each cAMP assay. The RIA kit was used according to the manufacturer's instructions.

[2] = system: PDE4A, PDE4B or PDE4D expression in CCRF-CEM cells; experiment: Western analysis of PDE4 isoforms, CCRF-CEM cells; details: rolipram
Description: B-CLL and CCRF-CEM cells were incubated for 18 hours with media alone, 10 μM rolipram, 10 μM forskolin (Fsk), 1 μM hydrocortisone (HC), or the same concentration of rolipram combined with 1 μM hydrocortisone (Roli+HC) or 10 μM forskolin (Roli+Fsk). Lysates of the cells were then assessed for expression of PDE4A, PDE4B or PDE4D by Western analysis. Equal loading of samples was verified by immunoblotting for tubulin.
30 million B-CLL cells or 10 million CCRF-CEM cells were incubated for 18 hours in media alone or with the addition of drugs as indicated in the text. Western analysis was then carried out as previously described^30.

CD3+ CD4+ Sezary cells = experiment: Hoechst 33342 apoptosis assay, Sezary cells; details: 10 μM rolipram or 1 μM hydrocortisone; one patient
Description: Magnetic bead purified peripheral blood T cells or leukemic cells from patients with B-CLL or Sezary syndrome were cultured in media alone or with a dose titration of hydrocortisone (solid line), followed by assessment for apoptosis by Hoechst 33342 FACS analysis at 48 hours. Using the same experimental conditions, the effect of addition of 10 μM rolipram (thick dashed line) or 10 μM rolipram and 40 μM forskolin (dotted line) was also assessed. The SEM of triplicate samples is shown; where not visible, the SEM was less than 1.0%.
CCRF-CEM cells were obtained from ATCC^27. Leukemic or normal mononuclear cells were obtained by centrifugation over Histopaque 1077 (Sigma Chemical Company, St. Louis, Mo.). For purification of T cells, whole mononuclear cells from normal subjects were incubated with magnetic beads coated with appropriate antibodies, then positively purified using a magnet (Miltenyi). […]
Hoechst 33342 and DiOC6(3) apoptosis assays were performed as previously described^22,28. […] The absorbance (O.D.) of the formazan product was determined at 492 nm using a plate reader (Titertek Multiscan Plus, Labsystems). Percent cell viability was calculated as follows: (O.D. control sample−O.D. blank)/(O.D. test sample−O.D. blank)×100. […]

[3] = system: cAMP levels in B-CLL cells; experiment: cAMP RIA, B-CLL cells; details: 10 μM rolipram for 30 minutes; six B-CLL patients; p<0.04
Description: as §1, §2

Which “B-CLL apoptosis, rolipram added to dexamethasone” value (B-CLL cells; 10 μM rolipram + dexamethasone dose titration, 48 hours) does the source give for `COc1ccc(C2CNC(=O)C2)cc1OC1CCCC1` (centres unmarked) [rolipram, 4-(3-cyclopentyloxy-4-methoxyphenyl)-2-pyrrolidone] here?
The value was “augmented B-CLL apoptosis beyond the levels observed with either agent alone”.

What about the “apoptosis by Hoechst 33342 analysis” value (B-CLL cells; B-CLL patient #1, No Rx 10) of the same compound?
The value was 17%.

And the “apoptosis by Hoechst 33342 analysis” value (B-CLL cells; B-CLL patient #2, No Rx 11)?
The value was 13%.

And the “apoptosis by Hoechst 33342 analysis” value (B-CLL cells; B-CLL patient #3, No Rx 13)?
The value was 24%.

What about the “apoptosis by Hoechst 33342 analysis” value (B-CLL cells; B-CLL patient #4, No Rx 23) of the same compound?
The value was 34%.

What about the “apoptosis by Hoechst 33342 analysis” value (B-CLL cells; B-CLL patient #5, No Rx 25) of the same compound?
The value was 37%.

And the “apoptosis by Hoechst 33342 analysis” value (B-CLL cells; B-CLL patient #6, No Rx 27)?
Its value is 45%.

And the “apoptosis by Hoechst 33342 analysis” value (B-CLL cells; B-CLL patient #7, No Rx 31)?
Its value is 67%.

What about the “apoptosis by Hoechst 33342 analysis” value (B-CLL cells; B-CLL patient #8, No Rx 33) of the same compound?
The value was 62%.

And the “apoptosis by Hoechst 33342 analysis” value (B-CLL cells; B-CLL patient #9, No Rx 35)?
The value was 81%.

And the “apoptosis by Hoechst 33342 analysis” value (B-CLL cells; B-CLL patient #10, No Rx 44)?
Its value is 58%.

And the “apoptosis by Hoechst 33342 analysis” value (B-CLL cells; B-CLL patient #11, No Rx 61)?
Its value is 75%.

And the “augmentation of induction of apoptosis relative to the increment induced with 100 μM hydrocortisone alone” value (B-CLL cells; addition of 10 μM rolipram to 100 μM hydrocortisone, five patients)?
Its value is 40±18%.

And the “effect on cAMP levels” value [1]?
Its value is “no effect”.

What about the “induction of PDE4 isoforms” value [2] of the same compound?
The value was “nor induced any PDE4 isoform”.

What about the “apoptotic effect used separately on Sezary leukemic cells” value (CD3+ CD4+ Sezary cells) of the same compound?
Its value is “little effect”.

What about the “cAMP levels above that observed in untreated cells” value [3] of the same compound?
The value was 2.5±0.7 fold.
